According to patent US20230416258A1, “BENZ[…], AND PREPARATION METHOD THEREFOR AND USE THEREOF” (CHINA PHARMACEUTICAL UNIVERSITY, priority 2020, published 2023):

Tested on: KM mice
Assay: Test for drug-induced disappearance of righting reflex in mice
Type: in vivo
Conditions: 30 mg/kg, single rapid bolus via tail vein
In short: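 Female KM mice (18–25 g), randomly grouped, given a single rapid bolus via tail vein. Latency (administration to loss of righting reflex) and duration (loss to recovery) recorded.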

Row | SMILES | Duration | Latency
1 | COC(=O)CC[C@@H]1N=C(c2ccccc2Cl)c2cc(Cl)ccc2-n2c(SCCN(C)C)nnc21 [Compound 133, methyl (S)-3-(8-chloro-6-(2-chlorophenyl)-1-(2-((dimethylamino)ethyl)thio)-4H-benzo[f][1,2,4]triazolo[4,3-a][1,4]diazepin-4-yl)propionate] | 2.24 min | 0.26 min
2 | COC(=O)CC[C@@H]1N=C(c2ccccc2F)c2cc(Br)ccc2-n2c(SCCN(C)C)nnc21 [Compound 134, methyl (S)-3-(8-bromo-6-(2-fluorophenyl)-1-(2-((dimethylamino)ethyl)thio)-4H-benzo[f][1,2,4]triazolo[4,3-a][1,4]diazepin-4-yl)propionate] | 6.54 min | 0.27 min
3 | O=C(CC[C@@H]1N=C(c2ccccc2Cl)c2cc(Cl)ccc2-n2c1n[nH]c2=S)OCCN1CCOCC1 [Compound 137, (S)-3-(8-chloro-6-(2-chlorophenyl)-1-thio-2,4-dihydro-1H-benzo[f][1,2,4]triazolo[4,3-a][1,4]diazepin-4-yl)propionic acid-2-morpholinoethyl ester] | 21.45 min | 0.67 min
4 | COC(=O)CC[C@@H]1N=C(c2ccccc2Cl)c2cc(Cl)ccc2-n2c(SCCn3ccnc3)nnc21 [Compound 138, methyl (S)-3-(8-chloro-6-(2-chlorophenyl)-1-(2-((1H-imidazol-1-yl)ethyl)thio)-4H-benzo[f][1,2,4]triazolo[4,3-a][1,4]diazepin-4-yl)propionate] | 6.94 min | 0.27 min
5 | COC(=O)CC[C@@H]1N=C(c2ccccc2F)c2cc(Br)ccc2-n2c(SCCn3ccnc3)nnc21 [Compound 139, methyl (S)-3-(8-bromo-6-(2-fluorophenyl)-1-(2-((1H-imidazol-1-yl)ethyl)thio)-4H-benzo[f][1,2,4]triazolo[4,3-a][1,4]diazepin-4-yl)propionate] | 19.99 min | 0.38 min
6 | COC(=O)CC[C@@H]1N=C(c2ccccc2Cl)c2cc(Cl)ccc2-n2c(SCCn3cccc3)nnc21 [Compound 140, methyl (S)-3-(8-chloro-6-(2-chlorophenyl)-1-(2-((1H-pyrrol-1-yl)ethyl)thio)-4H-benzo[f][1,2,4]triazolo[4,3-a][1,4]diazepin-4-yl)propionate] | 21.65 min | 0.45 min
7 | CCN(C)C(=O)Sc1nnc2n1-c1ccc(Cl)cc1C(c1ccccc1Cl)=N[C@H]2CCC(=O)OC [Compound 142, methyl (S)-3-(8-chloro-6-(2-chlorophenyl)-1-((ethyl(methyl)carbamoyl)thio)-4H-benzo[f][1,2,4]triazolo[4,3-a][1,4]diazepin-4-yl)propionate] | 10.35 min | 0.21 min
8 | COC(=O)CC[C@@H]1N=C(c2ccccc2Cl)c2cc(Cl)ccc2-n2c(SCCC(=O)N(C)C)nnc21 [Compound 143, methyl (S)-3-(8-chloro-6-(2-chlorophenyl)-1-(3-((dimethylamino)-3-oxopropyl)thio)-4H-benzo[f][1,2,4]triazolo[4,3-a][1,4]diazepin-4-yl)propionate] | 9.62 min | 0.64 min
9 | COC(=O)CC[C@@H]1N=C(c2ccccc2Cl)c2cc(Cl)ccc2-n2c(SCC3=NCCN3)nnc21 [Compound 144, methyl (S)-3-(8-chloro-6-(2-chlorophenyl)-1-(((4,5-dihydro-1H-imidazol-2-yl)methyl)thio)-4H-benzo[f][1,2,4]triazolo[4,3-a][1,4]diazepin-4-yl)propionate] | 5.32 min | 0.45 min
10 | COC(=O)CC[C@@H]1N=C(c2ccccc2Cl)c2cc(Cl)ccc2-n2c1n[nH]c2=S [Tautomer of compound 2, methyl (S)-3-(8-chloro-6-(2-chlorophenyl)-1-thio-2,4-dihydro-1H-benzo[f][1,2,4]triazolo[4,3-a][1,4]diazepin-4-yl)propionate] | 10.35 min | 1.10 min
